# Source: ChEMBL document CHEMBL1124694, “C2,N6-disubstituted adenosines: synthesis and structure-activity relationships” (J Med Chem, 1989)
# What was measured:
# [1] = molecular target: T1, Adenosine receptor A1 (Rattus norvegicus, UniProt P25099)
# T1 sequence (P25099 whole entry): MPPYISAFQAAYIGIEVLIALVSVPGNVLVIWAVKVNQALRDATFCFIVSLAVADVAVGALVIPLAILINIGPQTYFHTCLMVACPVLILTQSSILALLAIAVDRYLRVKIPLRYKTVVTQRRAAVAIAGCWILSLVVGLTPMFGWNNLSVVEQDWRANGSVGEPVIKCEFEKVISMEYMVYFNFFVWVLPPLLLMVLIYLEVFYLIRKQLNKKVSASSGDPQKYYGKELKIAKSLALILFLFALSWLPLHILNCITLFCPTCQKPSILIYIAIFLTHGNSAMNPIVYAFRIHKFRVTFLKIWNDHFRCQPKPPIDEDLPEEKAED
# [2] = molecular target: T2, Adenosine A2 receptor (Rattus norvegicus, UniProt P29276+P30543)
# [3] = molecular target: T2, Adenosine A2 receptor; test: Inhibition of [3H]NECA binding to Adenosine A2 receptor of rat striatal membranes; assay type: cell membranes, Membrane
SMILES,Ki [1] [nM],Ki [2] [nM],Ki [3] [nM]
COc1cc(OC)cc(C(CNc2nc(Nc3ccccc3)nc3c2ncn3C2O[C@H](CO)[C@@H](O)[C@H]2O)c2ccccc2)c1 (stereo not given in full),9000,470,
Nc1nc(NCC(c2ccccc2)c2ccccc2)c2ncn(C3O[C@H](CO)[C@@H](O)[C@H]3O)c2n1 (stereo not given in full),61,135,
CC(Cc1ccccc1)Nc1nc(N)nc2c1ncn2C1O[C@H](CO)[C@@H](O)[C@H]1O (stereo not given in full),19.2,1530,
OC[C@H]1OC(n2cnc3c(NCc4cccc5ccccc45)nc(Sc4ccccc4)nc32)[C@H](O)[C@@H]1O (stereo not given in full),1470,610,
OC[C@H]1OC(n2cnc3c(NC4CC5CCC4C5)nc(Nc4ccccc4)nc32)[C@H](O)[C@@H]1O (stereo not given in full),7.7,472,
OC[C@H]1OC(n2cnc3c(NCC(c4ccccc4)c4ccccc4)nc(Sc4ccccc4)nc32)[C@H](O)[C@@H]1O (stereo not given in full),840,800,
Nc1nc(=O)[nH]c2c1ncn2[C@@H]1O[C@H](CO)[C@@H](O)[C@H]1O [ISOGUANOSINE],,,330
O=S(=O)(c1ccccc1)c1nc(NC2CCCC2)c2ncn(C3O[C@H](CO)[C@@H](O)[C@H]3O)c2n1 (stereo not given in full),96,2300,
CC(O)CNc1nc(Nc2ccccc2)nc2c1ncn2C1O[C@H](CO)[C@@H](O)[C@H]1O (stereo not given in full),50,1700,
OC[C@H]1OC(n2cnc3c(NCc4cccc5ccccc45)nc(Nc4ccccc4)nc32)[C@H](O)[C@@H]1O (stereo not given in full),560,230,
OC[C@H]1OC(n2cnc3c(NC4CCCC4)nc(Sc4ccccc4)nc32)[C@H](O)[C@@H]1O (stereo not given in full),37,4000,
CC(Cc1ccccc1)Nc1nc(Nc2ccccc2)nc2c1ncn2C1O[C@H](CO)[C@@H](O)[C@H]1O (stereo not given in full),152,240,
OC[C@H]1OC(n2cnc3c(NCC(c4ccccc4)c4ccccc4)nc(Nc4ccccc4)nc32)[C@H](O)[C@@H]1O (stereo not given in full),2700,650,
CC(O)CNc1ncnc2c1ncn2C1O[C@H](CO)[C@@H](O)[C@H]1O (stereo not given in full),5,9300,
Nc1nc(Sc2ccccc2)nc2c1ncn2C1O[C@H](CO)[C@@H](O)[C@H]1O (stereo not given in full),2200,,2000
OC[C@H]1OC(n2cnc3c(NC4CCCCC4)nc(Nc4ccccc4)nc32)[C@H](O)[C@@H]1O (stereo not given in full),54,450,
OC[C@H]1OC(n2cnc3c(NC4CC4)nc(Nc4ccccc4)nc32)[C@H](O)[C@@H]1O (stereo not given in full),68,960,
COc1ccc(-c2nc(N)c3ncn(C4O[C@H](CO)[C@@H](O)[C@H]4O)c3n2)cc1 (stereo not given in full),1320,,600

SMILES,Ki [1] [nM],Ki [2] [nM],Ki [3] [nM]
O=S(=O)(c1ccccc1)c1nc(NC2CCCCC2)c2ncn(C3O[C@H](CO)[C@@H](O)[C@H]3O)c2n1 (stereo not given in full),420,5100,
CC(Cc1ccccc1)Nc1nc(Sc2ccccc2)nc2c1ncn2C1O[C@H](CO)[C@@H](O)[C@H]1O (stereo not given in full),210,1000,
OC[C@H]1OC(n2cnc3c(NCc4ccccc4)nc(Nc4ccccc4)nc32)[C@H](O)[C@@H]1O (stereo not given in full),1630,7100,
OC[C@H]1OC(n2cnc3c(NC4CCCCC4)nc(Sc4ccccc4)nc32)[C@H](O)[C@@H]1O (stereo not given in full),160,6700,
Nc1nc(NC2CCCC2)c2ncn(C3O[C@H](CO)[C@@H](O)[C@H]3O)c2n1 (stereo not given in full),8.3,6100,
OC[C@H]1OC(n2cnc3c(NCCc4ccccc4)nc(NCCc4ccccc4)nc32)[C@H](O)[C@@H]1O (stereo not given in full),1620,2000,
OC[C@H]1OC(n2cnc3c(NCC4c5ccccc5-c5ccccc54)nc(Nc4ccccc4)nc32)[C@H](O)[C@@H]1O (stereo not given in full),8900,2100,
O=S(=O)(c1ccccc1)c1nc(NCc2cccc3ccccc23)c2ncn(C3O[C@H](CO)[C@@H](O)[C@H]3O)c2n1 (stereo not given in full),2000,270,
OC[C@H]1OC(n2cnc3c(NCc4cccc5ccccc45)nc(F)nc32)[C@H](O)[C@@H]1O (stereo not given in full),18.1,14.9,
OC[C@H]1OC(n2cnc3c(NCc4cccc5ccccc45)nc(NCc4ccccc4)nc32)[C@H](O)[C@@H]1O (stereo not given in full),530,350,
OC[C@H]1OC(n2cnc3c(NC4CCCC4)nc(Nc4ccccc4)nc32)[C@H](O)[C@@H]1O (stereo not given in full),12.4,144,
Nc1nc(NCC2c3ccccc3-c3ccccc32)c2ncn(C3O[C@H](CO)[C@@H](O)[C@H]3O)c2n1 (stereo not given in full),18.5,22,
Nc1nc(S(=O)(=O)c2ccccc2)nc2c1ncn2C1O[C@H](CO)[C@@H](O)[C@H]1O (stereo not given in full),2600,,1230
OC[C@H]1O[C@@H](n2cnc3c(NC4CC4)ncnc32)[C@H](O)[C@@H]1O,3.2,,
COc1cc(OC)cc(C(CNc2nc(Nc3ccccc3)nc3c2ncn3C2O[C@H](CO)[C@@H](O)[C@H]2O)c2ccccc2C)c1 (stereo not given in full),10300,340,
OC[C@H]1OC(n2cnc3c(NN4CCCC4)nc(Nc4ccccc4)nc32)[C@H](O)[C@@H]1O (stereo not given in full),18400,58000,
OC[C@H]1O[C@@H](n2cnc3c(NCc4cccc5ccccc45)nc(NC4CCCCC4)nc32)[C@H](O)[C@@H]1O,45000,10300,
Nc1nc(NC2CCCCC2)c2ncn(C3O[C@H](CO)[C@@H](O)[C@H]3O)c2n1 (stereo not given in full),19.3,3500,
